# “And” between values parts separate entries of the source, which are not always exact repeats. Equal values may be shown once. Where a name gives a salt, the structure may show the parent alone.
# Experiments:
# hypoxic CHO cells [1] = experiment: radiosensitizing potency on hypoxic CHO cells as a function of linker length (Table 3); assay type: cell-based, Chinese hamster; conditions: 8 Gy; for Sensitization Ratio at 20% Cell Survival Level: vs metronidazole, by linker (spacer chain) length
# Procedure: The experiment shown in Table 3 is a later experiment which was conducted to determine the effect of the spacer chain (i.e., A) length. CHO cells were plated and allowed to attach to petri dishes for 3 h, then the media was replaced with 5 ml of Hank's Balanced Salt Solution with or without drugs. To induce cell hypoxia, the dishes were placed in sealed aluminum chambers which were degassed by pumping, and then back filled with 95% N2 /5% CO2. After 4 cycles, when the cells were severely hypoxic, the chambers were exposed to an X-ray beam generated by a General Electric Maxitron 300 therapy machine operated at 250 kVp and 20 mA (HVL 20 mm Al filter; dose rate at 2 Gy/min). The cells were cultured for 7 days in a 37° C. incubator and the resulting cell colonies were stained and counted.
# [2] = test system: Chinese hamster ovary (CHO) cells; experiment: in vitro radiosensitization of hypoxic CHO cells, colony formation (Table 1); assay type: cell-based; conditions: drug dose 0.1 mM; for SFR (N2)(18 Gy), surviving fraction ratio: hypoxic
# Procedure: Cells were plated and allowed to attach on glass petri dishes for 3 h, then the media was replaced with 5 ml of Hank's balanced salt solution (HBSS) with or without drugs. To induce cell hypoxia, the dishes were placed at room temperature into sealed aluminum chambers (8 dishes/chamber). […] This procedure was repeated 4 times with 5 min holding periods under positive gas pressure between evacuations. After 1 h, when the cells were severely hypoxic, the chambers were placed in 37° C. water bath for 1 hr. For oxic treatment groups, cells were placed in 37° C. incubators for 2 h with 5 ml of HBSS (±drugs). The chambers were placed on a rotating table and exposed to an X-ray beam generated by a General Electric Maxitron 300 therapy machine operated at 250 kVp and 20 mA (HVL 20 mm Al filter; dose rate at 2 Gy/min). After irradiation, cells were rinsed with HBSS, and covered with fresh media. Cells were cultured for 7 days in a 37° C. incubator. The resulting cell colonies were stained and counted.
# CHO cells [3] = experiment: radiosensitization potency on hypoxic CHO cells at 20% survival, single X ray dose 8 Gy (Table 2); assay type: cell-based, Chinese hamster; conditions: for IC80: Cricetulus griseus, CHO, read-out: drug molarity required to reduce cell survival to 20% of the untreated control value; for times more potent than metronidazole: hypoxic, 20% survival; for times more potent than metronidazole / Sensitization Ratio at 20% Survival Level: 8 Gy; for Sensitization Ratio at 20% Survival Level: vs metronidazole
# Procedure: Cells were plated and allowed to attach on glass petri dishes for 3 h, then the media was replaced with 5 ml of Hank's balanced salt solution (HBSS) with or without drugs. To induce cell hypoxia, the dishes were placed at room temperature into sealed aluminum chambers (8 dishes/chamber). The chambers were degassed by pumping, and then back-filled with 95% N2 and 5% CO2. This procedure was repeated 4 times with 5 min holding periods under positive gas pressure between evacuations. After 1 h, when the cells were severely hypoxic, the chambers were placed in 37° C. water bath for 1 hr. For oxic treatment groups, cells were placed in 37° C. incubators for 2 h with 5 ml of HBSS (±drugs). The chambers were placed on a rotating table and exposed to an X-ray beam generated by a General Electric Maxitron 300 therapy machine operated at 250 kVp and 20 mA (HVL 20 mm Al filter; dose rate at 2 Gy/min). After irradiation, cells were rinsed with HBSS, and covered with fresh media. Cells were cultured for 7 days in a 37° C. incubator. The resulting cell colonies were stained and counted.
# In the experiment shown in Table 2 hypoxic CHO cells were irradiated with a single X ray dose of 8 Gy, with or without drugs.
# CHO cells [4] = experiment: thermo-radiosensitization of hypoxic CHO cells, colony forming assay (Table 4); assay type: cell-based, Chinese hamster; conditions: 41° C.; for combined drug/mild hyperthermia effect on radiosensitivity: hypoxic CHO cells; for Do: 30 min
# Procedure: To examine the thermo-radiosensitizing effects of compounds (8) and (10), hypoxic CHO cells were irradiated (with or without drugs) with radiation doses ranging from 0-30 Gy. After irradiation, the chambers were placed either in a 37° C. or in a 41° C. water bath for 30 min. Then cell survival was evaluated by the colony forming assay.
# hypoxic CHO cells [5] = experiment: in vitro toxicity on hypoxic CHO cells, colony formation; assay type: cell-based, Chinese hamster; conditions: 0.2 mM, 12 hours at 37° C.
# Procedure: Subsequently, hypoxic CHO cells were incubated with 0.2 mM DATM or 10 mM metro for 12 hours at 37° C.
# hypoxic CHO cells [6] = experiment: radiosensitizing hypoxic CHO cells, drugs given 2 hours at 4° C.; assay type: cell-based, Chinese hamster
# mice [7] = experiment: preliminary in vivo toxicity, intraperitoneal, mice
# Procedure: In a preliminary in vivo study, two groups of mice were injected intraperitoneally with either 1 g/kg or 4 g/kg of DATM (formula 8).
# solubility in water = assay type: physicochemical; conditions: d-gluconic acid salt
# Procedure: A solution of N, N, N', N'-tetra[2'-(2-methyl-5-nitro-1-imidazolyl)ethyl]-1,8-octanediamine free base was prepared by dissolving 0.5 g of N, N, N', N'-tetra[2'-(2-methyl-5-nitro-1-imidazolyl)ethyl]-1,8-octanediamine in 20 ml of CH2 Cl2. To this solution, 2 g of gluconic acid in 5 ml of water was added. To the resultant mixture, pure MeOH was added dropwise until the mixture became a homogeneous solution. To this, 50 ml of ether, followed by 200 ml of hexane were added to precipitate the solid. The reaction mixture was cooled to 4° C., and the precipitated salt was removed by filtration through a sintered glass funnel, washed with anhydrous ether and dried under vacuum.
# H. pylori [8] = experiment: agar dilution method, inhibition of H. pylori growth; assay type: cell-based, H. pylori strain ATCC43504
# H. pylori [9] = experiment: disk diffusion method, H. pylori growth inhibition; assay type: cell-based
# H. pylori [10] = experiment: modified bottle broth method, H. pylori growth inhibition; assay type: cell-based
# [11] = test system: MTG-B mammary adenocarcinoma tumors; experiment: in vivo radiosensitization of MTG-B mammary adenocarcinoma tumors in mice; set-up: species or system female C3H mice
# Procedure: To determine whether the pronounced effects of DATM in tissue culture can be duplicated in solid tumors, in vivo studies were performed on mice bearing MTG-B mammary adenocarcinoma tumors. The tumors were grown subcutaneously in the right flank of 7-week old female C3H mice. When the tumor diameter reached 8 mm, 8-carbon DATM was administered to groups of mice either intraperitoneally or orally at 2 g/kg, and 2 or 4 h later the tumors were subjected to an X-ray dose of 22 Gy. Control mice bearing identical tumors were either left untreated or treated with radiation alone or drug alone. For irradiation, the mice were placed into lead holders with the tumor-bearing leg exposed. After treatment, the tumor diameters were measured daily by caliper and the time required for tumors to grow to twice their initial size was calculated as tumor doubling time (TDT), with the treatment day defined as Day 0 for all calculations and plots, The survival time for mice was also recorded in all treatment groups.
# To evaluate radiosensitization at different radiation doses, additional experiments were carried out where mice receiving DATM (2 g/kg body weight, given orally) were exposed to different radiation doses (0, 12, 22, 32 Gy).
# FIG. 10 compares the effectiveness of oral DATM (2 g/kg body weight) to that of a much smaller DATM dose (25 mg/kg body weight) injected directly into the tumor.
# mice [12] = experiment: later in vivo toxicity, oral, mice
# [13] = as radiosensitizers; cited from earlier work
# [14] = DATM (2 g/kg, i.p. or oral) + radiation 22 Gy
compound,measurement,setting,value
"Cc1ncc([N+](=O)[O-])n1CCN(CCCCN(CCn1c([N+](=O)[O-])cnc1C)CCn1c([N+](=O)[O-])cnc1C)CCn1c([N+](=O)[O-])cnc1C [Linker Length 4, N, N, N', N'-tetra [2'-(2-methyl-5-nitro-1-imidazolyl)ethyl]-1,4-butanediamine]",times more potent/effective than metronidazole,hypoxic CHO cells [1],50 times
same,Sensitization Ratio at 20% Cell Survival Level,hypoxic CHO cells [1],50
"Cc1ncc([N+](=O)[O-])n1CCN(CCCCN(CCn1c([N+](=O)[O-])cnc1C)CCn1c([N+](=O)[O-])cnc1C)CCn1c([N+](=O)[O-])cnc1C [Compound 8, N, N, N', N'-tetra [2'-(2-methyl-5-nitro-1-imidazolyl)ethyl]-1,4-butanediamine]",Do,[2],2.5 Gy
same,Ratio of RT Dose For 0.04 SF,[2],1.5
same,"SFR (N2)(18 Gy), surviving fraction ratio",[2],9.0
same,IC80,CHO cells [3],200 µM
same,times more potent than metronidazole,CHO cells [3],50 times
same,Sensitization Ratio at 20% Survival Level,CHO cells [3],50
same,combined drug/mild hyperthermia effect on radiosensitivity,CHO cells [4],hypoxic cells become even more radiosensitive (smaller D0) than fully oxic cells
same,Do,CHO cells [4]; drug dose 50 μM,0.8 Gy
same,toxic effects on CHO cells,hypoxic CHO cells [5],No toxic effects were noted
same,"radiosensitizing effectiveness, 0.2 mM DATM vs 10 mM metro",hypoxic CHO cells [6],equally effective
same,toxicity,"mice [7]; 1 g/kg intraperitoneally, mice",No toxicity was observed
same,lethality,"mice [7]; 4 g/kg intraperitoneally, mice",all mice of the 4 g/kg group died
same,toxicity compared to metro,mice [7]; same dosage,roughly comparable to that of metro for the same dosage
"Cc1ncc([N+](=O)[O-])n1CCN(CCCCCCCCN(CCn1c([N+](=O)[O-])cnc1C)CCn1c([N+](=O)[O-])cnc1C)CCn1c([N+](=O)[O-])cnc1C [Example 5, N, N, N', N'-tetra[2'-(2-methyl-5-nitro-1-imidazolyl)ethyl]-1,8-octanediamine gluconic acid salt]",solubility in water,solubility in water,highly soluble in water
"Cc1ncc([N+](=O)[O-])n1CCN(CCCCCN(CCn1c([N+](=O)[O-])cnc1C)CCn1c([N+](=O)[O-])cnc1C)CCn1c([N+](=O)[O-])cnc1C [Compound 10, N, N, N', N'-tetra[2'-(2-methyl-5-nitro-1-imidazolyl)ethyl]-1,5-pentanediamine]",Do,[2],1.9 Gy
same,Ratio of RT Dose For 0.04 SF,[2],1.5
same,"SFR (N2)(18 Gy), surviving fraction ratio",[2],21.4
same,IC80,CHO cells [3],25 µM
same,times more potent than metronidazole,CHO cells [3],400 times
same,Sensitization Ratio at 20% Survival Level,CHO cells [3],400
same,combined drug/mild hyperthermia effect on radiosensitivity,CHO cells [4],hypoxic cells become even more radiosensitive (smaller D0) than fully oxic cells
same,Do,CHO cells [4]; drug dose 10 μM,0.6 Gy
"Cc1ncc([N+](=O)[O-])n1CCN(CCCCCCCCN(CCn1c([N+](=O)[O-])cnc1C)CCn1c([N+](=O)[O-])cnc1C)CCn1c([N+](=O)[O-])cnc1C [8-carbon DATM, N, N, N', N'-tetra[2'(2-methyl-5-nitro-1-imidazolyl)ethyl]-1,8-octanediamine]",ratio of the MIC of metronidazole over that of DATM,H. pylori [8],35.37
same,times more potent than metronidazole in killing H. pylori,H. pylori [9],22.1 times
same,ratio of the two MIC (metronidazole/DATM),H. pylori [10],132.63
same,Sensitization Ratio at 20% Cell Survival Level,hypoxic CHO cells [1],510
same,sensitization effect of intratumor injection vs intraperitoneal,"[11]; 25 mg/kg intratumor vs 2 g/kg i.p., 22 Gy",same sensitization effect as 2 g/kg given intraperitoneally
same,effectiveness of intratumor injection vs oral,[11]; 25 mg/kg intratumor vs 2 g/kg oral,much more effective than oral drug administration
same,life span of tumor-bearing mice,"[11]; 2 g/kg orally, radiation doses 0, 12, 22, 32 Gy",pronounced increase in the life span of tumor-bearing mice at all radiation doses studied
same,tumor doubling time (TDT),[11]; 8-carbon DATM alone,4 days
same,survival time of mice,"[11]; 8-carbon DATM alone, 2 g/kg, no radiation",13 to 15 days
same,increase of survival time,[11]; [14],157-179%
same,survival time,[11]; [14],36 days and 39 days
same,effectiveness in delaying tumor growth relative to radiation alone,[11]; DATM + radiation,~3 times
same,tumor doubling time (TDT),[11]; DATM + radiation,18 days
same,effectiveness of oral vs intraperitoneal,"[11]; equal drug dose, 22 Gy",slightly less effective than an equal drug dose administered intraperitoneally
same,times less toxic to mice than metronidazole,mice [12]; oral,at least 5 times
same,toxicity,mice [12]; oral doses as high as 20 g/kg,no toxicity was observed
"Cc1ncc([N+](=O)[O-])n1CCN(CCCCCN(CCn1c([N+](=O)[O-])cnc1C)CCn1c([N+](=O)[O-])cnc1C)CCn1c([N+](=O)[O-])cnc1C [5-carbon DATM, N, N, N', N'-tetra[2'-(2-methyl-5-nitro-1-imidazolyl)ethyl]-1,5-pentanediamine]",Sensitization Ratio at 20% Cell Survival Level,hypoxic CHO cells [1],80
Cc1ncc([N+](=O)[O-])n1CCN(CCCCCCN(CCn1c([N+](=O)[O-])cnc1C)CCn1c([N+](=O)[O-])cnc1C)CCn1c([N+](=O)[O-])cnc1C [Linker Length 6],Sensitization Ratio at 20% Cell Survival Level,hypoxic CHO cells [1],120
COCC(O)Cn1ccnc1[N+](=O)[O-] (centres unmarked) [misonidazole],toxicity at therapeutic levels,[13],highly toxic at therapeutic levels
Cc1ncc([N+](=O)[O-])n1CCN(CCCCCCCN(CCn1c([N+](=O)[O-])cnc1C)CCn1c([N+](=O)[O-])cnc1C)CCn1c([N+](=O)[O-])cnc1C [Linker Length 7],Sensitization Ratio at 20% Cell Survival Level,hypoxic CHO cells [1],220
